Article PMC10671052, “Naphthyl-Substituted Indole and Pyrrole Carboxylic Acids as Effective Antibiotic Potentiators—Inhibitors of Bacterial Cystathionine γ-Lyase” (International Journal of Molecular Sciences, 2023)

What was measured:
[1] = molecular target: T1, human cystathionine-γ-lyase (hCSE) (Homo sapiens, UniProt P32929); assay: IC50 assay: inhibition of H2S production by purified hCSE, WSP5 fluorescent probe; type: biochemical; settings: purified hCSE 0.02 μM, 100 μM L-cysteine, WSP5 probe, mean ± SD; read-out: IC50 biochemical assay hCSE
T1 construct: His6-TEV (N, cleaved yes); host or cells: E. coli
Method in brief: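 Purified recombinant enzyme (0.02 μM; E. coli-expressed) preincubated 40 min at 30 °C with inhibitor in 50 mM sodium phosphate pH 8.0, 10 μM PLP, 0.1% Tween 20 and 1.2 μM WSP-5. Started with 100 μM L-cysteine; H2S fluorescence (ex 500/em 530 nm) followed 12 h. IC50 from four-parameter fit, mean of ≥2 experiments.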

[2] = in vitro
Procedure: A test compound (final concentration 10 μM) was incubated at 37 °C in SGF, SIF, or human plasma for 2, 2, or 4 h, respectively. 100 μL aliquots were taken from each sample and 300 μL of acetonitrile containing an internal standard was added. […] All compounds were tested in triplicate. The percentage of a remaining compound after incubation was determined based on the chromatographic peak area of the sample after incubation and that of time zero (freshly prepared and injected) sample.

T1 sequence (P32929 whole entry): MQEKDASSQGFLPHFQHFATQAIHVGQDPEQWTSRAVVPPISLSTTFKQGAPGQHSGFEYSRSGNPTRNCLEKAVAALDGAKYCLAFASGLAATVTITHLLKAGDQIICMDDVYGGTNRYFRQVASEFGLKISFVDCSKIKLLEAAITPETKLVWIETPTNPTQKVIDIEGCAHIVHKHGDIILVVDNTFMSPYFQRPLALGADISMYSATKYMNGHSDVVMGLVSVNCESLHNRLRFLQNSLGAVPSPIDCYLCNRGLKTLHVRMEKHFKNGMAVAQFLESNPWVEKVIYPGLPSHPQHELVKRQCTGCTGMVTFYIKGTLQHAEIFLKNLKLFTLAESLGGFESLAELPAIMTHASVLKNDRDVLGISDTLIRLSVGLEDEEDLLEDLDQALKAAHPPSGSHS

For `O=C(O)c1cc2ccccc2n1Cc1cccc2ccccc12` [Compound 2a], the IC50 [1] was 251 ± 16.6 µM, the “Stability in human plasma, % Remaining at 4 h” value ([2]; 4 h, 10 μM) was 97.6% and the remaining at 4 h, 10 μM ([2]; human, plasma, Stability in human plasma, % Remaining at 4 h) was 97.6 ± 7.95%. The “Stability in SGF, % Remaining at 2 h” value ([2]; simulated gi fluid, 2 h, 10 μM) was 91.9%, the “Stability in SIF, % Remaining at 2 h” value ([2]; simulated gi fluid, 2 h, 10 μM) was 104.1% and the remaining at 2 h, 10 μM ([2]; simulated gi fluid, Stability in SGF) was 91.9 ± 2.68%. For the same compound, the remaining at 2 h, 10 μM ([2]; simulated gi fluid, Stability in SIF) was 104 ± 14.2%.
